pIC50: −log10 of the molar value.

The assay relates to MOLM-13 cells. Kind of assay: MOLM-13 Cell Proliferation Assay (indicator of DHODH inhibition). The class given is cell-based. To be noted: Homo sapiens, 72 Hours of culture, CellTiter-Glo, no uridine. A digest of the protocol: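 Proliferation readout via CellTiter-Glo luminescence after 72 h compound treatment (37 °C, 5% CO2, 0.5% DMSO) of MOLM-13 cells seeded at 10^4 per well in RPMI 1640/10% FBS, used as a DHODH-inhibition indicator since these cells rely on de novo pyrimidine synthesis.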
(In general: ATP-based viability assays read luminescence as a measure of living cells.)
What is called pIC50 is the IC50 on a negative log10 scale, so that one unit is a factor of ten. A low value points to a large IC50. The molecule `Cc1ccc([C@H]2c3[nH]c4ccc(Cl)cc4c3CCN2c2nc(C#N)cc(C(F)(F)F)n2)cc1` [Compound 425, 2-[(1S)-6-chloro-1-(4-methylphenyl)-1,3,4,9-tetrahydro-2H-pyrido[3,4-b]indol-2-yl]-6-(trifluoromethyl)pyrimidine-4-carbonitrile] gave a negative logarithm of the IC50 (pIC50) of 8.92.
The molecule `Cc1ccc([C@H]2c3[nH]c4ccc(Cl)cc4c3CCN2c2nc(N)nc(C(F)(F)F)n2)cc1` [Compound 426, 4-[(1S)-6-chloro-1-(4-methylphenyl)-1,3,4,9-tetrahydro-2H-pyrido[3,4-b]indol-2-yl]-6-(trifluoromethyl)-1,3,5-triazin-2-amine] had a negative-log IC50 (pIC50) of 7.19.
In the case of `FC(F)(F)c1nc(N2CCOCC2)nc(N2CCc3c([nH]c4ccc(Cl)cc34)C2c2ccc(N3CCOCC3)nc2)n1` (stereo not drawn) [Compound 428, 6-chloro-1-[6-(morpholin-4-yl)pyridin-3-yl]-2-[4-(morpholin-4-yl)-6-(trifluoromethyl)-1,3,5-triazin-2-yl]-2,3,4,9-tetrahydro-1H-pyrido[3,4-b]indole], the negative-log IC50 (pIC50) is 8.28.
`FC(F)(F)c1cnnc(N2CCc3c([nH]c4ccc(Cl)cc34)C2c2ccc(N3CCOCC3)nc2)n1` (stereo not drawn) [Compound 429, 6-chloro-1-[6-(morpholin-4-yl)pyridin-3-yl]-2-[5-(trifluoromethyl)-1,2,4-triazin-3-yl]-2,3,4,9-tetrahydro-1H-pyrido[3,4-b]indole]: the pIC50 was 8.80.
The molecule `Cc1ccc(C2c3[nH]c4ccc(Cl)cc4c3CCN2c2nncc(C(F)(F)F)n2)cc1` (stereo not drawn) [Compound 430, 6-chloro-1-(4-methylphenyl)-2-[5-(trifluoromethyl)-1,2,4-triazin-3-yl]-2,3,4,9-tetrahydro-1H-pyrido[3,4-b]indole] had a pIC50 of 8.74. The pIC50 values of the last two molecules are within 0.2 log units of each other.
Then `Fc1nc(N2CCOCC2)ccc1C1c2[nH]c3ccc(Cl)cc3c2CCN1c1nccc(C(F)(F)F)n1` (stereo not drawn) [Compound 432, 6-chloro-1-[2-fluoro-6-(morpholin-4-yl)pyridin-3-yl]-2-[4-(trifluoromethyl)pyrimidin-2-yl]-2,3,4,9-tetrahydro-1H-pyrido[3,4-b]indole], with 8.80.
The molecule `N#Cc1cc(C(F)(F)F)nc(N2CCc3c([nH]c4ccc(Cl)cc34)[C@@H]2c2ccc(N3CCOCC3)nc2)n1` [Compound 433, 2-{(1S)-6-chloro-1-[6-(morpholin-4-yl)pyridin-3-yl]-1,3,4,9-tetrahydro-2H-pyrido[3,4-b]indol-2-yl}-6-(trifluoromethyl)pyrimidine-4-carbonitrile] gave a pIC50 of 8.96.
As for `N#Cc1cc(C(F)(F)F)nc(N2CCc3c([nH]c4ccc(Cl)cc34)[C@@H]2c2cnc(N3CCOCC3)nc2)n1` [Compound 434, 2-{(1S)-6-chloro-1-[2-(morpholin-4-yl)pyrimidin-5-yl]-1,3,4,9-tetrahydro-2H-pyrido[3,4-b]indol-2-yl}-6-(trifluoromethyl)pyrimidine-4-carbonitrile], the figure is 8.92; as for `Cc1ccc([C@H]2c3[nH]c4ccc(Cl)cc4c3CCN2c2nc(N3CCOCC3)nc(C(F)(F)F)n2)c(F)c1F` [Compound 436, (1S)-6-chloro-1-(2,3-difluoro-4-methylphenyl)-2-[4-(morpholin-4-yl)-6-(trifluoromethyl)-1,3,5-triazin-2-yl]-2,3,4,9-tetrahydro-1H-pyrido[3,4-b]indole], 9.22; as for `Cc1ccc(C2c3[nH]c4ccc(Cl)cc4c3CCN2c2nc(C)nc(C(F)(F)F)n2)cc1` (stereo not drawn) [Compound 437, 6-chloro-1-(4-methylphenyl)-2-[4-methyl-6-(trifluoromethyl)-1,3,5-triazin-2-yl]-2,3,4,9-tetrahydro-1H-pyrido[3,4-b]indole], 8.74.
As to `Cc1nc(N2CCc3c([nH]c4ccc(Cl)cc34)C2c2ccc(C)c(F)c2F)nc(C(F)(F)F)n1` (stereo not drawn) [Compound 438, 6-chloro-1-(2,3-difluoro-4-methylphenyl)-2-[4-methyl-6-(trifluoromethyl)-1,3,5-triazin-2-yl]-2,3,4,9-tetrahydro-1H-pyrido[3,4-b]indole], the negative-log IC50 (pIC50) is 9.22.
As for `Cc1nc(N2CCc3c([nH]c4ccc(Cl)cc34)C2c2ccc(N3CCOCC3)nc2)nc(C(F)(F)F)n1` (stereo not drawn) [Compound 439, 6-chloro-2-[4-methyl-6-(trifluoromethyl)-1,3,5-triazin-2-yl]-1-[6-(morpholin-4-yl)pyridin-3-yl]-2,3,4,9-tetrahydro-1H-pyrido[3,4-b]indole], the figure is 8.72.
`Cc1nc(N2CCc3c([nH]c4ccc(Cl)cc34)C2c2cnc(N3CCOCC3)nc2)nc(C(F)(F)F)n1` (stereo not drawn) [Compound 440, 6-chloro-2-[4-methyl-6-(trifluoromethyl)-1,3,5-triazin-2-yl]-1-[2-(morpholin-4-yl)pyrimidin-5-yl]-2,3,4,9-tetrahydro-1H-pyrido[3,4-b]indole] showed a negative-log IC50 (pIC50) of 8.68.
Then `Cc1ccc([C@H]2c3[nH]c4ccc(Cl)cc4c3CCN2c2nc(N(C)C)nc(C(F)(F)F)n2)cc1` [Compound 441, 4-[(1S)-6-chloro-1-(4-methylphenyl)-1,3,4,9-tetrahydro-2H-pyrido[3,4-b]indol-2-yl]-N,N-dimethyl-6-(trifluoromethyl)-1,3,5-triazin-2-amine], with 8.24; and `Cc1ccc([C@H]2c3[nH]c4ccc(Cl)cc4c3CCN2c2nc(N3CCOCC3)nc(C(F)(F)F)n2)cc1` [Compound 442, (1S)-6-chloro-1-(4-methylphenyl)-2-[4-(morpholin-4-yl)-6-(trifluoromethyl)-1,3,5-triazin-2-yl]-2,3,4,9-tetrahydro-1H-pyrido[3,4-b]indole], with 8.47; and `CN(C)c1nc(N2CCc3c([nH]c4ccc(Cl)cc34)[C@@H]2c2ccc(N3CCOCC3)nc2)nc(C(F)(F)F)n1` [Compound 443, 4-{(1S)-6-chloro-1-[6-(morpholin-4-yl)pyridin-3-yl]-1,3,4,9-tetrahydro-2H-pyrido[3,4-b]indol-2-yl}-N,N-dimethyl-6-(trifluoromethyl)-1,3,5-triazin-2-amine], with 8.51.
Turning to `CN(C)c1nc(N2CCc3c([nH]c4ccc(Cl)cc34)[C@@H]2c2cnc(N3CCOCC3)nc2)nc(C(F)(F)F)n1` [Compound 444, 4-{(1S)-6-chloro-1-[2-(morpholin-4-yl)pyrimidin-5-yl]-1,3,4,9-tetrahydro-2H-pyrido[3,4-b]indol-2-yl}-N,N-dimethyl-6-(trifluoromethyl)-1,3,5-triazin-2-amine], the negative logarithm of the IC50 (pIC50) is 8.24.
As for `FC(F)(F)c1nc(N2CCOCC2)nc(N2CCc3c([nH]c4ccc(Cl)cc34)[C@@H]2c2cnc(N3CCOCC3)nc2)n1` [Compound 445, (1S)-6-chloro-1-[2-(morpholin-4-yl)pyrimidin-5-yl]-2-[4-(morpholin-4-yl)-6-(trifluoromethyl)-1,3,5-triazin-2-yl]-2,3,4,9-tetrahydro-1H-pyrido[3,4-b]indole], the figure is 8.28; as for `FC(F)(F)c1nc(N2CCOCC2)nc(N2CCc3c([nH]c4ccc(Cl)cc34)[C@@H]2c2ccc(N3CCOCC3)nc2)n1` [Compound 446, (1S)-6-chloro-1-[6-(morpholin-4-yl)pyridin-3-yl]-2-[4-(morpholin-4-yl)-6-(trifluoromethyl)-1,3,5-triazin-2-yl]-2,3,4,9-tetrahydro-1H-pyrido[3,4-b]indole], 8.57.
As for `N#Cc1ccc(C2c3[nH]c4ccc(Cl)cc4c3CCN2c2nccc(C(F)(F)F)n2)cc1` (stereo not drawn) [Compound 447, 4-{6-chloro-2-[4-(trifluoromethyl)pyrimidin-2-yl]-2,3,4,9-tetrahydro-1H-pyrido[3,4-b]indol-1-yl}benzonitrile], the figure is 8.32.
Regarding `Cc1nc(C)nc(N2CCc3c([nH]c4ccc(Cl)cc34)C2c2ccc(Cl)cc2)n1` (stereo not drawn) [Compound 449, 6-chloro-1-(4-chlorophenyl)-2-(4,6-dimethyl-1,3,5-triazin-2-yl)-2,3,4,9-tetrahydro-1H-pyrido[3,4-b]indole], the pIC50 was 7.82.
As for `Cc1nc(C)nc(N2CCc3c([nH]c4ccc(Cl)cc34)C2c2ccc(F)cc2)n1` (stereo not drawn) [Compound 450, 6-chloro-2-(4,6-dimethyl-1,3,5-triazin-2-yl)-1-(4-fluorophenyl)-2,3,4,9-tetrahydro-1H-pyrido[3,4-b]indole], the figure is 7.53.
For `Cc1nc(C)nc(N2CCc3c([nH]c4ccc(Cl)cc34)C2c2ccc(F)cc2F)n1` (stereo not drawn) [Compound 451, 6-chloro-1-(2,4-difluorophenyl)-2-(4,6-dimethyl-1,3,5-triazin-2-yl)-2,3,4,9-tetrahydro-1H-pyrido[3,4-b]indole], the negative-log IC50 (pIC50) is 8.10.
In turn, `Cc1ccc(C2c3[nH]c4ccc(Cl)cc4c3CCN2c2nc(C)nc(C)n2)c(F)c1` (stereo not drawn) [Compound 452, 6-chloro-2-(4,6-dimethyl-1,3,5-triazin-2-yl)-1-(2-fluoro-4-methylphenyl)-2,3,4,9-tetrahydro-1H-pyrido[3,4-b]indole] showed a pIC50 of 8.29.
As for `Cc1nc(C)nc(N2CCc3c([nH]c4ccc(Cl)cc34)C2c2ccc(C#N)cc2F)n1` (stereo not drawn) [Compound 453, 4-[6-chloro-2-(4,6-dimethyl-1,3,5-triazin-2-yl)-2,3,4,9-tetrahydro-1H-pyrido[3,4-b]indol-1-yl]-3-fluorobenzonitrile], the figure is 8.31; as for `FC(F)(F)c1cc(C(F)(F)F)nc(N2CCc3c([nH]c4ccc(-n5nccn5)cc34)C2c2ccc(N3CCOCC3)nc2)n1` (stereo not drawn) [Compound 454, 2-[4,6-bis(trifluoromethyl)pyrimidin-2-yl]-1-[6-(morpholin-4-yl)pyridin-3-yl]-6-(2H-1,2,3-triazol-2-yl)-2,3,4,9-tetrahydro-1H-pyrido[3,4-b]indole], 9.15.
In turn, `Cc1cnn(-c2ccc3[nH]c4c(c3c2)CCN(c2nc(C(F)(F)F)cc(C(F)(F)F)n2)C4c2ccc(N3CCOCC3)nc2)n1` (stereo not drawn) [Compound 455, 2-[4,6-bis(trifluoromethyl)pyrimidin-2-yl]-6-(4-methyl-2H-1,2,3-triazol-2-yl)-1-[6-(morpholin-4-yl)pyridin-3-yl]-2,3,4,9-tetrahydro-1H-pyrido[3,4-b]indole] gave a pIC50 of 8.28.
